Laboratory results as given in patent publication US8119681B2, “2-[1-phenyl-5-hydroxy or methoxy-4alpha-methyl-hexahydrocyclopenta [ƒ]indazole-5-YL]ethyl phenyl derivatives as glucocorticoid receptor ligands” (Merck Sharp & Dohme Corp., priority 2006, dated 2012).
Where two headings read alike, the source gives them in different places.

Target: T1, human GR (Homo sapiens, UniProt P04150)
T1 sequence (P04150 1-777): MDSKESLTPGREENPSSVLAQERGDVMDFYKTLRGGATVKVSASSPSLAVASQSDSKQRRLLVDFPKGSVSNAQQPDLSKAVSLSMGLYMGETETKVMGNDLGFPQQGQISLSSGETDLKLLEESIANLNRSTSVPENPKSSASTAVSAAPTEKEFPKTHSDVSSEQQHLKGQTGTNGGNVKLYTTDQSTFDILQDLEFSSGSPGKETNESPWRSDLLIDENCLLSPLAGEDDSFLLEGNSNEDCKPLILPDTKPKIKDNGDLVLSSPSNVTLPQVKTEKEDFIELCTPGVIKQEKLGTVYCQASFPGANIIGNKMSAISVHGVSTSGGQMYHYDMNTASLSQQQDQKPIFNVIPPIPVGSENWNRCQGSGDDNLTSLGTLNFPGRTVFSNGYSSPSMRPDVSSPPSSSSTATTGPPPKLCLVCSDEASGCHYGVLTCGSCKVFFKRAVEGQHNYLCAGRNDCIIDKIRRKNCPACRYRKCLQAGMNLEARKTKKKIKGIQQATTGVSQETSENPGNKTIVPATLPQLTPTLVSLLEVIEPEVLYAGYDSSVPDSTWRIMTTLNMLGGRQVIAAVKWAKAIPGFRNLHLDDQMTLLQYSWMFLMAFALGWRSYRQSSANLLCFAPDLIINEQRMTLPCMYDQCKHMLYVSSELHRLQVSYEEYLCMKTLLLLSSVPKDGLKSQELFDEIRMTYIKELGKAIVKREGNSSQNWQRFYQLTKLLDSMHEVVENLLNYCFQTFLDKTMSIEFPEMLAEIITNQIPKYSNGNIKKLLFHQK
Assay: Transrepression Assay (GITAR), TNFα-β-lactamase reporter gene in U937 cells
Type: cell-based
Parameters: U937 cells contain an endogenous glucocorticoid receptor (GR); endogenous in cells; host or cells: U937 cells stably transfected with the TNF-α promoter/β-lactamase reporter only
Excerpt: Transrepression Assay (GITAR)
This assay assesses the ability of test compounds to control transcription from the TNFα-β-lactamase reporter gene in U937 cells, a human myelomonocytic leukemia cell line that naturally expresses the human GR. The assay measures compound dependent-repression of the TNFa promoter linked to a reporter gene.
The human U937 cells that had been stably transfected with the TNF-α promoter driving β-lactamase are used for this assay. U937 cells contain an endogenous glucocorticoid receptor (GR). […] 50,000 cells/well are plated in 96 well black-walled plates the day of assay. Test compounds are added 10 μL/well, and cells are incubated at 37° C. for 30˜45 min. For assaying compounds, first dilute 1:10 in DMSO to make 1 mM, then further dilute 1:100 in medium to make 10× stock prior to adding to the cells. Add 50 ng/ml PMA (Sigma, cat# P8139) 10 μL/well to a final concentration 5 ng/ml, and 1 μg/ml LPS (Sigma, cat# L4130) 10 μL/well to a final concentration 100 ng/ml. Incubate cells at 370 C overnight for ˜18 hr. PMA is stored frozen as 100 μg/ml stock in DMSO. Dilute 1:10 in DMSO for a working stock of 10 μg/ml and store at −20 C. For assaying, dilute the 10 μg/ml working stock 1:200 in medium to make a 10× solution (50 ng/ml). Store frozen LPS at 1 mg/ml in PBS, dilute 1:1000 in medium to make 10× (1 μg/ml) for the assay. Add 6× loading buffer (CCF2-AM) 20 μL/well, and incubate at room temperature for 70˜90 min. […] The activity repressed by 100 nM dexamethasone alone is set as 100% activity.

[1] = U-937, 100 nM dexamethasone = 100% activity, read-out: maximal activity in the transrepression assay

Row | Emax [1] [%] | Emax (U-937, read-out: maximal activity in the transrepression assay) [%] | SMILES
1 | 5 to 100 | – | C[C@]12Cc3cnn(-c4ccc(F)cc4)c3C=C1CC[C@@]2(O)CCc1cccc(F)c1C(=O)N1CCC(F)(F)C1 [Example 77, (4αS,5R)-5-(2-{2-[(3,3-difluoropyrrolidin-1-yl)carbonyl]-3-fluorophenyl}ethyl)-1-(4-fluorophenyl)-4α-methyl-1,4,4α,5,6,7-hexahydrocyclopenta[f]indazol-5-ol]
2 | 5 to 100 | – | C[C@]12Cc3cnn(-c4ccc(F)cc4)c3C=C1CC[C@@]2(O)CCc1ccccc1CNCC(F)(F)F [Example 104, (4αS,5R)-1-(4-fluorophenyl)-4α-methyl-5-[2-[2-{[(2,2,2-trifluoroethyl)amino]methyl}phenyl)ethyl]-1,4,4α,5,6,7-hexahydrocyclopenta[f]indazol-5-ol]
3 | 5 to 100 | – | CC(=O)Nc1c(F)cccc1CC[C@]1(O)CCC2=Cc3c(cnn3-c3ccc(F)cc3)C[C@@]21C [Example 128, N-(2-fluoro-6-{2-[(4αS,5R)-1-(4-fluorophenyl)-5-hydroxy-4α-methyl-1,4,4α,5,6,7-hexahydrocyclopenta[f]indazol-5-yl]ethyl}phenyl)acetamide]
4 | 5 to 100 | – | C[C@]12Cc3cnn(-c4ccc(F)cc4)c3C=C1CC[C@@]2(O)CCc1ccccc1C(=O)N1CCCC(F)(F)C1 [Example 66, (4αS,5R)-5-(2-{2-[(3,3-difluoropiperidin-1-yl)carbonyl]phenyl}ethyl)-1-(4-fluorophenyl)-4α-methyl-1,4,4α,5,6,7-hexahydrocyclopenta[f]indazol-5-ol]
5 | 5 to 100 | – | C[C@]12Cc3cnn(-c4ccc(F)cc4)c3C=C1CC[C@@]2(O)CCc1cccc(F)c1CNS(=O)(=O)c1ccc(F)cc1F [Example 79, 2,4-difluoro-N-(2-fluoro-6-{2-[(4αS,5R)-1-(4-fluorophenyl)-5-hydroxy-4α-methyl-1,4,4α,5,6,7-hexahydrocyclopenta[f]indazol-5-yl]ethyl}benzyl)benzenesulfonamide]
6 | 5 to 100 | – | CC1CN1C(=O)c1ccccc1CC[C@]1(O)CCC2=Cc3c(cnn3-c3ccc(F)cc3)C[C@@]21C (stereo partly drawn) [Example 73, (4αS,5R)-1-(4-fluorophenyl)-4α-methyl-5-(2-{2-[(2-methylaziridin-1-yl)carbonyl]phenyl}ethyl)-1,4,4α,5,6,7-hexahydrocyclopenta[f]indazol-5-ol]
7 | 5 to 100 | – | C[C@]12Cc3cnn(-c4ccc(F)cc4)c3C=C1CC[C@@]2(O)CCc1ccccc1-c1ccc[nH]1 [Example 147, (4αS,5R)-1-(4-fluorophenyl)-4α-methyl-5-{2-[2-(1H-pyrrol-2-yl)phenyl]ethyl}-1,4,4α,5,6,7-hexahydrocyclopenta[f]indazol-5-ol]
8 | 5 to 100 | – | C[C@]12Cc3cnn(-c4ccc(F)cc4)c3C=C1CC[C@@]2(O)CCc1ccc(C(F)(F)F)cc1C(N)=O [Example 175, 2-{2-[(4αS,5R)-1-(4-fluorophenyl)-5-hydroxy-4α-methyl-1,4,4α,5,6,7-hexahydrocyclopenta[f]indazol-5-yl]ethyl}-5-(trifluoromethyl)benzamide]
9 | 5 to 100 | – | CC(C)NC(=O)Nc1ccc(F)cc1CC[C@]1(O)CCC2=Cc3c(cnn3-c3ccc(F)cc3)C[C@@]21C [Example 133, N-(4-fluoro-2-{2-[(4αS,5R)-1-(4-fluorophenyl)-5-hydroxy-4α-methyl-1,4,4α,5,6,7-hexahydrocyclopenta[f]indazol-5-yl]ethyl}phenyl)-N′-isopropylurea]
10 | 5 to 100 | – | C[C@]12Cc3cnn(-c4ccc(F)cc4)c3C=C1CC[C@@]2(O)CCc1ccccc1-c1ccc(F)nc1 [Example 10, (4αS,5R)-1-(4-fluorophenyl)-5-{2-[2-(6-fluoropyridin-3-yl)phenyl]ethyl}-4α-methyl-1,4,4α,5,6,7-hexahydrocyclopenta[f]indazol-5-ol]
11 | 5 to 100 | – | CC(C)NC(=O)Nc1c(F)cccc1CC[C@]1(O)CCC2=Cc3c(cnn3-c3ccc(F)cc3)C[C@@]21C [Example 130, N-(2-fluoro-6-{2-[(4αS,5R)-1-(4-fluorophenyl)-5-hydroxy-4α-methyl-1,4,4α,5,6,7-hexahydrocyclopenta[f]indazol-5-yl]ethyl}phenyl)-N′-isopropylurea]
12 | 5 to 100 | – | CNC(=O)C(C)(C)NC(=O)c1ccccc1CC[C@]1(O)CCC2=Cc3c(cnn3-c3ccc(F)cc3)C[C@@]21C [Example 75, N-[1,1-dimethyl-2-(methylamino)-2-oxoethyl]-2-{2-[(4αS,5R)-1-(4-fluorophenyl)-5-hydroxy-4α-methyl-1,4,4α,5,6,7-hexahydrocyclopenta[f]indazol-5-yl]ethyl}benzamide]
13 | 5 to 100 | – | C[C@]12Cc3cnn(-c4ccccc4)c3C=C1CC[C@@]2(O)CCc1ccccc1S(N)(=O)=O [Example 141, 2-{2-[(4αS,5R)-5-hydroxy-4α-methyl-1-phenyl-1,4,4α,5,6,7-hexahydrocyclopenta[f]indazol-5-yl]ethyl}benzenesulfonamide]
14 | 5 to 100 | – | C[C@]12Cc3cnn(-c4ccc(F)cc4)c3C=C1CC[C@@]2(O)CCc1cccc(F)c1C(=O)N1CC[C@H](F)C1 [Example 69, (4αS,5R)-5-[2-(3-fluoro-2-{[(3S)-3-fluoropyrrolidin-1-yl]carbonyl}phenyl)ethyl]-1-(4-fluorophenyl)-4α-methyl-1,4,4α,5,6,7-hexahydrocyclopenta[f]indazol-5-ol]
15 | 5 to 100 | – | CC(C)(NC(=O)c1ccccc1CC[C@]1(O)CCC2=Cc3c(cnn3-c3ccc(F)cc3)C[C@@]21C)C(N)=O [Example 70, N-(2-amino-1,1-dimethyl-2-oxoethyl)-2-{2-[(4αS,5R)-1-(4-fluorophenyl)-5-hydroxy-4α-methyl-1,4,4α,5,6,7-hexahydrocyclopenta[f]indazol-5-yl]ethyl}benzamide]
16 | 5 to 100 | – | C[C@]12Cc3cnn(-c4ccc(F)cc4)c3C=C1CC[C@@]2(O)CCc1cc(F)ccc1N [Example 112, (4αS,5R)-5-[2-(2-amino-5-fluorophenyl)ethyl]-1-(4-fluorophenyl)-4α-methyl-1,4,4α,5,6,7-hexahydrocyclopenta[f]indazol-5-ol]
17 | 5 to 100 | – | C[C@]12Cc3cnn(-c4ccc(F)cc4)c3C=C1CC[C@@]2(O)CCc1cc(F)ccc1NS(=O)(=O)CC(F)(F)F [Example 119, 2,2,2-trifluoro-N-(4-fluoro-2-{2-[(4αS,5R)-1-(4-fluorophenyl)-5-hydroxy-4α-methyl-1,4,4α,5,6,7-hexahydrocyclopenta[f]indazol-5-yl]ethyl}phenyl)ethanesulfonamide]
18 | 5 to 100 | – | C[C@]12Cc3cnn(-c4ccc(F)cc4)c3C=C1CC[C@@]2(O)CCc1ccccc1C=O [Example 21, 2-{2-[(4αS,5R)-1-(4-Fluorophenyl)-5-hydroxy-4α-methyl-1,4,4α,5,6,7-hexahydrocyclopenta[f]indazol-5-yl]ethyl}benzaldehyde]
19 | 5 to 100 | – | C[C@]12Cc3cnn(-c4ccc(F)cc4)c3C=C1CC[C@@]2(O)CCc1cccc(F)c1C(=O)N1CC(=O)C1 [Example 155, 1-(2-fluoro-6-{2-[(4αS,5R)-1-(4-fluorophenyl)-5-hydroxy-4α-methyl-1,4,4α,5,6,7-hexahydrocyclopenta[f]indazol-5-yl]ethyl}benzoyl)azetidin-3-one]
20 | 5 to 100 | – | CC(C)NC(=O)Nc1ccccc1CC[C@]1(O)CCC2=Cc3c(cnn3-c3ccc(F)cc3)C[C@@]21C [Example 129, N-(2-{2-[(4αS,5R)-1-(4-fluorophenyl)-5-hydroxy-4α-methyl-1,4,4α,5,6,7-hexahydrocyclopenta[f]indazol-5-yl]ethyl}phenyl)-N′-isopropylurea]
21 | – | 5 to 100 | C[C@]12Cc3cnn(-c4ccc(F)cc4)c3C=C1CC[C@@]2(O)CCc1ccccc1CO [Example 149, (4αS,5R)-1-(4-fluorophenyl)-5-{2-[2-(hydroxymethyl)phenyl]ethyl}-4α-methyl-1,4,4α,5,6,7-hexahydrocyclopenta[f]indazol-5-ol]
